These are literature values, as cited in US20030077264A1, “Antimicrobial blood treatment using allicin and related compounds” (priority 2001, published 2003).

Usually half-life stands for the time in which the quantity being followed falls by half.

The conditions of data set [1]: buffer.
Data set [2] concerns Helicobacter pylori. The settings on record: in medium.

On to “thio-2-propene-1-sulfinic acid S-allyl ester [Allicin]”, for which the half-life in data set [1] is 30 to 40 days. For the same substance, in data set [2], the minimum inhibitory concentration was 4.0 µg/mL.
